Consider eight compounds from patent publication US12391679B2, “Benzamide-substituted bicyclic imidazo- and pyrazolo-fused -pyridine, -pyrimide, and -pyridazine compounds for treatment of inflammatory diseases” (ONCO3R Therapeutics BV, priority 2019, dated 2025).

One experiment deals with T1, SIK2 (Homo sapiens, UniProt Q9H0K1).
T1 construct: purchased ThermoFisher Scientific PV4792
Put plainly: ADP-Glo kinase assay, SIK2. It is filed as biochemical. Summed up: (§1)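 Luminescent ADP-Glo readout of ADP formed. Enzyme-substrate mix with ATP, reaction 120 min at RT, then 40 min ATP depletion and 30 min detection. Controls were 1% DMSO (negative) and 10 μM staurosporine (positive), both final.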
(ADP-Glo turns the ADP formed in a reaction into a luminescent signal.)

The target in a further experiment is T2, SIK3 (Homo sapiens, UniProt Q9Y2K2).
T2 construct: purchased SignalChem S12-11G-100
Put plainly: ADP-Glo kinase assay, SIK3. It is filed as biochemical. Summed up:
as §1

Experiment [1] has as its system LPS-induced TNFα in monocytes. Put plainly: Monocytes assay: LPS-triggered TNFα (ELISA). It counts as cell-based, human. To be noted: Homo sapiens, Monocyte, LPS-triggered TNFα inhibition. Summed up: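 CD14+ monocytes were magnetically isolated from human buffy-coat PBMCs, preincubated with compound 1 h at 37 °C (0.2% DMSO), then stimulated with LPS at 200 ng/mL for 4 h. Supernatant TNFα was measured by luminescent sandwich ELISA; percentage inhibition was calculated against controls for each concentration.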
(An ELISA detects its analyte on a solid surface through an enzyme-linked reagent.)

The test system of experiment [2] is LPS triggered IL-10 secretion in monocytes. Put plainly: Monocytes assay: LPS-triggered IL-10 (ELISA). It is filed as cell-based, human. Conditions: Homo sapiens, Monocyte, LPS-triggered IL-10 induction, median maximal fold change vs LPS only, read-out: IL-10 FCmax median. In outline:
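CD14+ monocytes bead-isolated from human PBMCs, pretreated with compound 1 h at 37 °C (0.2% DMSO), then stimulated with LPS 200 ng/mL for 4 h. Supernatant IL-10 measured by chemiluminescent sandwich ELISA; fold change versus LPS only per concentration, reported as maximal fold change (FCmax).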

A value given as a limit tells only on which side of the number the result lay.

T1 sequence (Q9H0K1 whole entry): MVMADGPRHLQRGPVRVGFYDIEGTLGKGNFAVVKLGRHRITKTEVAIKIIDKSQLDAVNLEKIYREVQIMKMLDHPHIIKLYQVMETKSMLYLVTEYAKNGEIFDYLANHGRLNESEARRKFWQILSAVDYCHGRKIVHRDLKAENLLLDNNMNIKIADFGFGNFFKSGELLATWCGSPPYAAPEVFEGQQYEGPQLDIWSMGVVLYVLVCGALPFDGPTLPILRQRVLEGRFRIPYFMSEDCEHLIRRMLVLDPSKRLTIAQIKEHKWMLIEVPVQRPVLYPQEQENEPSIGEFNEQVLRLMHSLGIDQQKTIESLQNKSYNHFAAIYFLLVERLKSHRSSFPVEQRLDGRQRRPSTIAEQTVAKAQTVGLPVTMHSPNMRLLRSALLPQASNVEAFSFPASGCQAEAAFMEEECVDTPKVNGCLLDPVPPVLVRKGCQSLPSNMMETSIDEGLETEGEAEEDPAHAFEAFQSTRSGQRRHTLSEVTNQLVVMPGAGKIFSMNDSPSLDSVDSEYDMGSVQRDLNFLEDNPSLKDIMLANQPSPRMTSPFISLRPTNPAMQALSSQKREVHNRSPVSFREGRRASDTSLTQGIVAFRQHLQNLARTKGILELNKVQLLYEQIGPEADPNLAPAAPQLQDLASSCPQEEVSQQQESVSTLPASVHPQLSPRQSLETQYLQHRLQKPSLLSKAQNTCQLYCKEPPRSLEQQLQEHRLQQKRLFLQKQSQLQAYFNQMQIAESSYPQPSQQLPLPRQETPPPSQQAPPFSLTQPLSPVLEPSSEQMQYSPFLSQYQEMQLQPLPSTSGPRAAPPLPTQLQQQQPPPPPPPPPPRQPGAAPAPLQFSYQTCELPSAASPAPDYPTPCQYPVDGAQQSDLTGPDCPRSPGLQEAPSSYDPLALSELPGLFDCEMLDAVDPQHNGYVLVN
T2 sequence (Q9Y2K2 59-365 limits assumed): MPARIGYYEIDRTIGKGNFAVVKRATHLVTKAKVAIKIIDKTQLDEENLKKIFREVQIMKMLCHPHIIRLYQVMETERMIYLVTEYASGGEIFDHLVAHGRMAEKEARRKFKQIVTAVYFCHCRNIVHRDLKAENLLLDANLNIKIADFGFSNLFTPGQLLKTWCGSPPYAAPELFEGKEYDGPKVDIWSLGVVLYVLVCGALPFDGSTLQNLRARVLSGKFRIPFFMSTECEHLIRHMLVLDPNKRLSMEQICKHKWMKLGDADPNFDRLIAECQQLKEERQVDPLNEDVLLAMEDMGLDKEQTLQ

Regarding `COc1cc(-c2cnn3cc(C(C)(C)CO)ccc23)cc(OC(F)F)c1C(=O)N[C@@H]1C[C@@H]1F` [Cpd 242, 2-(difluoromethoxy)-N-[(1R,2S)-2-fluorocyclopropyl]-4-[6-(2-hydroxy-1,1-dimethyl-ethyl)pyrazolo[1,5-a]pyridin-3-yl]-6-methoxy-benzamide], the IC50 on SIK2 was over 500 nM; against SIK3, 0.01 to 10 nM. The same compound yielded a half-maximal effective concentration (EC50) in experiment [1] of 0.1 to 100 nM. Moreover, the maximal fold induction in experiment [2] was under 1.5.

On to `COc1cc(-c2cnn3cc(C4(C#N)CCOCC4)ccc23)cc(OC(F)F)c1C(=O)N[C@@H]1C[C@@H]1F` [Cpd 243, 4-[6-(4-cyanotetrahydropyran-4-yl)pyrazolo[1,5-a]pyridin-3-yl]-2-(difluoromethoxy)-N-[(1R,2S)-2-fluorocyclopropyl]-6-methoxy-benzamide], for which the results for the IC50 against SIK2 and against SIK3 were over 500 nM and 0.01 to 10 nM, respectively. Besides, the EC50 in experiment [1] was in the range of 100 to 1000 nM. In experiment [2], the maximal fold induction is under 1.5.

Regarding `COc1cc(-c2cnn3cc(C(C)(C)C#N)ccc23)cc(OC)c1C(=O)N[C@@H]1C[C@@H]1F` [Cpd 245, 4-[6-(1-cyano-1-methyl-ethyl)pyrazolo[1,5-a]pyridin-3-yl]-N-[(1R,2S)-2-fluorocyclopropyl]-2,6-dimethoxy-benzamide], the figures for the half-inhibitory concentration (IC50) against SIK2 and against SIK3 were over 500 nM and 10 to 100 nM, respectively. Further, the EC50 in experiment [1] is 100 to 1000 nM. Further, the maximal fold induction in experiment [2] is under 1.5.

As to `COc1cc(-c2cnn3cc(C4(C(N)=O)CCC4)ccc23)cc(OC(F)F)c1C(=O)N[C@@H]1C[C@@H]1F` [Cpd 254, 4-[6-(1-carbamoylcyclobutyl)pyrazolo[1,5-a]pyridin-3-yl]-2-(difluoromethoxy)-N-[(1R,2S)-2-fluorocyclopropyl]-6-methoxy-benzamide], the half-maximal inhibitory concentration (IC50) was over 500 nM against SIK2 and 0.01 to 10 nM at SIK3. This compound yielded a concentration for a half-maximal effect (EC50) in experiment [1] of 100 to 1000 nM. The maximal fold induction in experiment [2] is under 1.5.

As for `COc1cc(-c2cnn3cc(C(C)(C)N)ccc23)cc(OC(F)F)c1C(=O)N[C@@H]1C[C@@H]1F` [Cpd 256, 4-[6-(1-amino-1-methyl-ethyl)pyrazolo[1,5-a]pyridin-3-yl]-2-(difluoromethoxy)-N-[(1R,2S)-2-fluorocyclopropyl]-6-methoxy-benzamide], the 50% inhibitory concentration (IC50) is over 500 nM at SIK2 and 0.01 to 10 nM at SIK3. In experiment [1], this compound showed a concentration giving a half-maximal response (EC50) of 100 to 1000 nM. For the same compound, the maximal fold induction in experiment [2] is under 1.5.

`COc1cc(-c2cnn3cc(C4(N)CCC4)ccc23)cc(OC(F)F)c1C(=O)N[C@@H]1C[C@@H]1F` [Cpd 261, 4-[6-(1-aminocyclobutyl)pyrazolo[1,5-a]pyridin-3-yl]-2-(difluoromethoxy)-N-[(1R,2S)-2-fluorocyclopropyl]-6-methoxy-benzamide]: the IC50 on SIK2 was over 500 nM; on SIK3 it was 0.01 to 10 nM. In experiment [1], this compound came in with an EC50 of 100 to 1000 nM. Besides, the maximal fold induction in experiment [2] is under 1.5.

Consider `COc1cc(-c2cnn3cc(C4(O)CCC4)ccc23)cc(OC(F)F)c1C(=O)N[C@@H]1C[C@@H]1F` [Cpd 266, 2-(difluoromethoxy)-N-[(1R,2S)-2-fluorocyclopropyl]-4-[6-(1-hydroxycyclobutyl)pyrazolo[1,5-a]pyridin-3-yl]-6-methoxy-benzamide], for which the IC50 at SIK2 was in the range of 100 to 500 nM; against SIK3 it was 0.01 to 10 nM. Moreover, the EC50 in experiment [1] was 100 to 1000 nM. The maximal fold induction in experiment [2] is under 1.5.

For the compound `COc1cc(-c2cnn3cc(C(C)(C)CN4CCOCC4)ccc23)cc(OC(F)F)c1C(=O)N[C@@H]1C[C@@H]1F` [Cpd 269, 2-(difluoromethoxy)-4-[6-(1,1-dimethyl-2-morpholino-ethyl)pyrazolo[1,5-a]pyridin-3-yl]-N-[(1R,2S)-2-fluorocyclopropyl]-6-methoxy-benzamide], the concentration for half-maximal inhibition (IC50) at SIK2 is over 500 nM; on SIK3 it was 0.01 to 10 nM. This compound displayed an EC50 in experiment [1] of 100 to 1000 nM. Also, the maximal fold induction in experiment [2] lay in the range of 1.5 to 4.5.

The IC50 is the concentration needed to halve the response being measured. Broadly, the EC50 is the concentration giving half of the maximal effect.
